Paper PMC6647401, “Phase I dose-escalation study of F14512, a polyamine-vectorized topoisomerase II inhibitor, in patients with platinum-refractory or resistant ovarian cancer” (Investigational New Drugs, 2018)
Where “and” joins values, the source holds several entries; their conditions need not be identical. Identical values can stand only once. Like-named read-outs stand apart in the source and are kept apart here.

Key:
[1] = Plasma pharmacokinetics (LC/MS/MS); type: in vivo, human; settings: for AUCinf/dose level of F14512: n = 11, mean [range], three-hour infusion
Method: Plasma PK was studied after the administrations on days 1 and 3 of cycle 1 (pre-dose, T0+1.5 h, T0+3 h, T0+3.5 h, T0+4 h, T0+6 h T0+12 h, T0+24 h) and day 1 of cycle 2 (pre-dose, T0+3.5 h, T0+8 h, T0+24 h). F14512, its metabolite F16490 and the metabolite BG (an additional metabolite peak found in human during exploratory metabolite identification analysis and not retrieved in animal species) were assayed in plasma using liquid chromatography coupled with tandem mass spectrometry (LC/MS/MS).
Continuous data were summarized with frequency, median, range, mean, standard deviation and standard error if relevant. Categorical data were presented as frequencies and percentages. 95% confidence intervals (CI) were calculated following the exact method. PK parameters were compared for reproducibility between day 1 and day 3 of cycle 1 for F14512 and its metabolite F16490 using a pairwise t-test or a Wilcoxon test according to the normality of their distribution. Dose-proportionality of PK parameters for F14512 and its metabolite F16490 was investigated by graphical display only. A p value <0.05 was considered statistically significant. Data were analyzed using the SAS® system software version 9.3 for Windows® (Statistical Analysis System, Cary, NC, USA).

[2] = tested on: patients with platinum-refractory or resistant ovarian cancer; experiment: Safety: study drug-related adverse events (NCI-CTC v4.0); type: in vivo, human
Method: (§1) Toxicities were graded according to National Cancer Institute - Common Toxicity Criteria (NCI - CTC) for adverse events (AEs) (version 4.0). DLT determination criteria and safety assessments are described in the Online Resource. Response was assessed by using GCIG response criteria incorporating RECIST version 1.1 and CA-125. Plasma PK assessments and statistical methods are described in the Online Resource.
Safety was assessed by physical examination on days 1, 2 and 3 during each cycle. Complete blood cell counts were performed on days 4, 6, 8, 10, 12 and 15 of the first cycle, on day 1 of each subsequent cycle and then on a weekly basis thereafter. Serum chemistry was performed weekly during the first cycle and at the end of each cycle thereafter except serum magnesium and potassium which were measured twice weekly during the first week of each cycle and then, weekly for the following weeks. ECGs were performed at baseline and on day 1 of each cycle.

[3] = tested on: platinum-refractory or resistant ovarian cancer; experiment: Efficacy by GCIG response criteria (RECIST 1.1 and CA-125); type: in vivo, human
Method: as §1

[4] = tested on: PTS(+) A2780R cisplatin-resistant cell line; design: method as in PMID 26404751; settings: preliminary studies; cited from earlier work
[5] = tested on: human cancer cell lines; design: method as in PMID 19047165; settings: in vitro; cited from earlier work
[6] = tested on: experimental models; design: method as in PMID 19777159; settings: cited from earlier work
[7] = tested on: SK-OV3 cancer cells; design: method as in PMID 26404751; settings: cited from earlier work
[8] = tested on: patients with platinum-refractory or resistant ovarian cancer; type: in vivo
Method: This was an open-label, dose-escalation, multicenter, phase I study (EudraCT Number: 2012–005798-29) conducted in 3 investigational sites in France. The 10 mg/m^2/day dose of F14512 was planned as a starting dose (DL1) for escalation in cohorts of 3 to 6 patients until the MTD was reached. Dose escalation was based on a standard titration design by using increments of 33% except from the first dose escalation, which could proceed with a dose increment of 50% in the absence of grade 3 neutropenia and dose limiting toxicity (DLT) observed at DL1. Dose escalation then proceeded except if criteria of MTD were met at DL1. In that instance, the 5 mg/m^2/day dose was tested. All patients in a DL had to be followed for at least 3 weeks (cycle 1) for DLT evaluation before the first patient of the next dose level started treatment. The final decision to proceed to the next DL was made by the safety committee at the dose-escalation meeting. The MTD was defined as the DL at which 2/3 or 2/6 patients experienced a DLT during the first cycle. The Recommended Dose (RD) was the DL immediately below the MTD. A total of 10 evaluable patients had to be treated at the RD.
F14512 was administered as three-hour daily infusion through a central venous catheter for 3 consecutive days every 3 weeks depending on recovery to normal hematopoiesis or recovery of non-hematological toxicities to grade 1. During the first cycle, G- and GM-CSF use was prohibited, however, there were no such constraints in subsequent cycles.
DLTs were defined as one of the following drug-related AEs occurring during the first cycle: grade 4 neutropenia ≥ 7 days, grade 4 thrombocytopenia, or grade 3 thrombocytopenia requiring transfusion and/or associated with bleeding, grade 3 or 4 neutropenia concomitant with grade ≥ 3 infection or febrile neutropenia, any grade ≥ 3 gastrointestinal toxicity including grade ≥ 3 nausea, vomiting or diarrhea if persistent despite optimal antiemetic or anti-diarrheal treatment, any other drug-related grade ≥ 3 toxicity, any drug-related AE that required a delay of ≥ 2 weeks of the administration of cycle 2.

[9] = tested on: relapsed or refractory acute myeloid leukemia (AML); design: method as in earlier work; settings: single agent, AML patients at first relapse; cited from earlier work
[10] = tested on: platinum-resistant ovarian cancer (PROC); settings: cited from earlier work
[11] = Overall n = 11 (both dose levels), worse grade by patient

Structure (SMILES): COc1cc([C@@H]2c3cc4c(cc3[C@@H](NC(=O)CNCCCNCCCCNCCCN)[C@H]3COC(=O)[C@H]23)OCO4)cc(OC)c1O [F14512]
- Dose dependent PK parameters versus dose level ([1]; 5 versus 10 mg/m^2/day, no statistical analysis): increased with DL
- Cltot ([1]; D1 of cycle 1, n = 11, mean [range]): 13.2 [6.17–22.4] L/h
- AUCinf/dose level of F14512 ([1]; D1 of cycle 1, plasma): 152 [67.7–308]
- Cltot ([1]; D3 of cycle 1, n = 11, mean [range]): 12.9 [5.92–23.1] L/h
- AUCinf/dose level of F14512 ([1]; D3 of cycle 1, plasma): 156 [65.9–270]
- Difference of PK parameters between Day 1 and Day 3 ([1]; cycle 1, pairwise t-test or Wilcoxon test): not statistically significant
- Study drug-related AE: Confusional state, Overall grades ([2]; 5 mg/m^2/day, n = 6, worse grade by patient): 1 (16.7) N (%)
- Grade 4 neutropenia, cycles affected / cycles administered ([2]; DL 5 mg/m^2/day): 14/16
- Neutropenic infection ([2]; DL 5 mg/m^2/day): 1 patient
- Grade 4 neutropenia, cycles affected / cycles administered ([2]; DL 10 mg/m^2/day): 12/13
- Study drug-related AE: Alopecia, Overall grades [2, 11]: 2 (18.2) N (%)
- Study drug-related AE: Any related TESS, Grade 3 [2, 11]: 6 (54.5) N (%)
- Study drug-related AE: Any related TESS, Grade 4 [2, 11]: 1 (9.1) N (%)
- Study drug-related AE: Any related TESS, Overall grades [2, 11]: 11 (100.0) N (%)
- Study drug-related AE: Asthenia, Grade 3 [2, 11]: 2 (18.2) N (%)
- Study drug-related AE: Asthenia, Overall grades [2, 11]: 9 (81.8) N (%)
- Study drug-related AE: Blood and lymphatic system disorders, Grade 3 [2, 11]: 4 (36.4) N (%)
- Study drug-related AE: Blood and lymphatic system disorders, Grade 4 [2, 11]: 1 (9.1) N (%)
- Study drug-related AE: Blood and lymphatic system disorders, Overall grades [2, 11]: 5 (45.5) N (%)
- Study drug-related AE: Confusional state, Overall grades [2, 11]: 1 (9.1) N (%)
- Study drug-related AE: Constipation, Overall grades [2, 11]: 2 (18.2) N (%)
- Study drug-related AE: Diarrhea, Overall grades [2, 11]: 2 (18.2) N (%)
- Study drug-related AE: Dysgeusia, Overall grades [2, 11]: 1 (9.1) N (%)
- Study drug-related AE: Dyspepsia, Overall grades [2, 11]: 1 (9.1) N (%)
- Study drug-related AE: Febrile neutropenia, Grade 3 [2, 11]: 4 (36.4) N (%)
- Study drug-related AE: Febrile neutropenia, Overall grades [2, 11]: 4 (36.4) N (%)
- Study drug-related AE: Gastrointestinal disorders, Grade 3 [2, 11]: 2 (18.2) N (%)
- Study drug-related AE: Gastrointestinal disorders, Overall grades [2, 11]: 6 (54.5) N (%)
- Study drug-related AE: General disorders and administration site conditions, Grade 3 [2, 11]: 2 (18.2) N (%)
- Study drug-related AE: General disorders and administration site conditions, Overall grades [2, 11]: 9 (81.8) N (%)
- Study drug-related AE: Gingivitis, Overall grades [2, 11]: 1 (9.1) N (%)
- Study drug-related AE: Infections and infestations, Overall grades [2, 11]: 1 (9.1) N (%)
- Study drug-related AE: Muscle spasms, Overall grades [2, 11]: 2 (18.2) N (%)
- Study drug-related AE: Musculoskeletal and connective tissue disorders, Overall grades [2, 11]: 2 (18.2) N (%)
- Study drug-related AE: Myalgia, Overall grades [2, 11]: 1 (9.1) N (%)
- Study drug-related AE: Nausea, Grade 3 [2, 11]: 2 (18.2) N (%)
- Study drug-related AE: Nausea, Overall grades [2, 11]: 6 (54.5) N (%)
- Study drug-related AE: Nervous system disorders, Overall grades [2, 11]: 1 (9.1) N (%)
- Study drug-related AE: Neutropenia, Overall grades [2, 11]: 1 (9.1) N (%)
- Study drug-related AE: Neutropenic infection, Overall grades [2, 11]: 1 (9.1) N (%)
- Study drug-related AE: Night sweats, Overall grades [2, 11]: 1 (9.1) N (%)
- Study drug-related AE: Onycholysis, Overall grades [2, 11]: 1 (9.1) N (%)
- Study drug-related AE: Psychiatric disorders, Overall grades [2, 11]: 1 (9.1) N (%)
- Study drug-related AE: Pyrexia, Overall grades [2, 11]: 1 (9.1) N (%)
- Study drug-related deaths ([2]; all 11 patients): no study drug-related deaths
- Vomiting ([2]; all 11 patients (36%)): 4 patients
- Metabolism and nutrition disorder with decreased appetite ([2]; all 11 patients (46%)): 5 patients
- Nausea ([2]; all 11 patients (55%)): 6 patients
- Grade 4 neutropenia, share of treated patients ([2]; all 11 patients, both dose levels): 90.9%
- Study drug-related SAEs per dose level ([2]; at each DL (10 and 5 mg/m^2/day)): 3 patients
- Grade 4 neutropenia, cycles affected / cycles administered ([2]; both dose levels): 26/29
- Gastrointestinal disorders ([2]; in vivo): 6 patients
- General disorders (mainly asthenia) ([2]; in vivo): 9 patients
- Grade 3 febrile neutropenia ([2]; in vivo): 4 patients
- Grade 4 neutropenia reported as serious drug-related AE ([2]; in vivo): 1 patient
- Grade 4 neutropenia, share of cycles administered ([2]; in vivo): 89.7%
- Study drug-related AE: Skin and subcutaneous tissue disorders, Overall grades ([2]; in vivo): 4 (36.4) N (%)
- Study drug-related AE: Stomatitis, Overall grades ([2]; in vivo): 1 (9.1) N (%)
- Study drug-related AE: Vomiting, Overall grades ([2]; in vivo): 4 (36.4) N (%)
- Study drug-related serious AEs (SAEs) ([2]; in vivo): 6 patients
- Objective response ([3]; 5 patients evaluable for efficacy, GCIG criteria): no objective response
- Stable disease (SD) as best overall response ([3]; of 5 evaluable patients (40%), both received 9 cycles, 1 at each DL): 2 patients
- Antitumor activity in ovarian tumor models [4]: confirmed the antitumor activity
- Cell lines with superior anti-proliferative activity [5]: 21/29
- Tumor response in experimental models ([6]; after intravenous or oral administration): complete tumor regression
- Experimental models with antitumor efficacy ([6]; in vivo): 13/19
- Response rate in experimental models ([6]; in vivo): 68%
- Increased sensitivity to cytotoxicity compared to etoposide [7]: ten-fold
- Number of DLTs reported ([8]; 5 mg/m^2/day, in 2/6 treated patients): 2 DLTs
- Number of DLTs reported ([8]; 10 mg/m^2/day, in 3/4 evaluable patients): 6 DLTs
- Permanent treatment discontinuation because of study drug-related toxicity ([8]; in vivo): 5 patients
- Maximum tolerated dose (MTD) ([8]; three-hour daily infusion, 3 consecutive days every 3 weeks, both dose levels defined as MTD): 5 mg/m^2/day and 10 mg/m^2/day
- Complete remissions [9]: 36%

Structure (SMILES): CC(=O)O[C@H]1C(=O)[C@@]2(C)[C@H]([C@H](OC(=O)c3ccccc3)[C@]3(O)C[C@H](OC(=O)[C@H](O)[C@@H](NC(=O)c4ccccc4)c4ccccc4)C(C)=C1C3(C)C)[C@]1(OC(C)=O)CO[C@@H]1C[C@@H]2O [paclitaxel]
- Progression free survival [10]: 2–6 months
- Response rates [10]: 0%–30%
